The test system of assay [1] is cyanoguanidine binding proteins. Kind of assay: Photolabeling of cyanoguanidine binding proteins in A10 cells (SDS gel, autoradiography). Also noted: species or system rat. Conditions: for molecular weight of radiolabeled protein / apparent molecular weight of the most prominent radiolabeled protein / number of radiolabeled proteins: A10 membrane extracts, UV light. On the procedure: (§1) To biochemically identify the proteins that specifically bind the azidophenylcyanguanidines, Example 1a, Example 2a and Example 3a were prepared. A10 cells were grown to confluence in standard culture plates and then washed extensively with EBSS-H. After the final wash, the cells were placed in EBSS-H containing one of the radiolabeled forms of the azidophenylcyanguanidine to be tested. The A10 cells were equilibrated with the radiolabeled compound for 15 minutes at 37° C. The A10 cells were placed on ice and exposed for 1 minute to 600 μwatts/cm^2 of 254 nm UV light. After photolysis, the A10 cells were washed extensively with phosphate buffered saline. Membranes from the A10 cells were solubilized in cocktail of 0.2% Triton X100 detergent and protease inhibitors. The membranes were precipitated with 4 volumes of ice cold acetone for 30 minutes. The precipitate membrane proteins were collected by centrifugation at 20,000 rpm for 30 rain at 4° C. in a Beckman SW-28 rotor. After centrifugation the supernate was discarded and the pellet was dissolved 2% sodium dodecyl sulfate (SDS) as described by O'Farrell (J. Biol. Chem. 250:4007-4021, 1975). The radiolabeled proteins were resolved on an SDS polyacrylamide gel and identified by autoradiography after the gel was stained and dried.

Assay [2] addresses T1, KATP channel in A10 rat aortic smooth muscle cells (Rattus norvegicus, UniProt Q63563).
T1 construct: resting membrane potential of A10 rat aortic smooth muscle cells; host or cells: A10 rat aortic smooth muscle cells
Nature of the assay: A10 membrane potential assay (DiBAC4(3) fluorescence), KATP channel opening. The assay is classed as cell-based. Conditions: for block of the hyperpolarizing effect by glyburide: 10 μM glyburide; for block of the hyperpolarizing effect by glyburide / EC50: A10 cells; for EC50: hyperpolarization of membrane potential; for potency relative to N-cyano-N'-(1,1-dimethylpropyl)-N''-3-pyridinylguanidine: A10 membrane potential assay. The source says: (§2) Compounds that modulate KATP channel activity were examined by quantitating the effect of these compounds on the resting membrane potential of A10 rat aortic smooth muscle cells (American Type Culture Collection, number CRL-1476) using a fluorescent, potentialsensitive dye and an instrument to measure changes in cellular fluorescence. The dye of choice is bis(1,3-dibutylbarbituric acid)trimethine oxonol) DiBAC4 (3). Other voltage sensitive dyes could also be used. To optically measure changes in membrane potential, cells were subcultured onto coverglass chambers and grown to confluence. Immediately prior to analysis, cells were washed several times with Earle's balanced salt solution that was buffered to pH 7.4 with 20 mM Hepes (EBSS-H) and then placed in the buffer containing 5 μM DiBAC4 (3). Fluorescent imaging of membrane potential was carried out after the cells were equilibrated with 5 μM DiBAC4 (3) for at least 15 min at 37° C. and then placed in a 35° C. temperature-regulated mini-incubator that was mounted on the stage of laser based imaging cytometer (ACAS 570, Meridian Instruments). The ACAS 570 was configured to excite the cells at 488 nm using an argon ion laser. The fluorescent emission was monitored at 525 nm. To determine the effect of azidophenylcyanoguanidines on membrane potential, the ACAS 570 was configured to collect data once every 60 seconds for at least 25 minutes using the Kinetic program within the ACAS software. In all cases, 7 min. of baseline data were collected before the addition of the compound of interest. Changes in membrane potential were computed using a logistical model developed at Upjohn Laboratories. Control experiments established that solvents such as dimethylsulfoxide and ethanol had no effect at concentrations up to 0.8%.
In FIG. 1 the Y axis represents the change in membrane potential elicited by N-cyano-N'-(1,1-dimethylpropyl)-N''-3-pyridinylguanidine. A positive change represents a hyperpolarization of the membrane potential caused by an opening of a KATP channel. The X axis represents increasing concentrations of N-cyano-N'-(1,1-dimethylpropyl)-N''-3-pyridinylguanidine. […] The EC50 for N-cyano-N'-(1,1-dimethylpropyl)-N''-3-pyridinylguanidine in the A10 membrane potential assay is 30 nM. […] In FIG. 2 the Y axis represents change in membrane potential elicited by Example 1. A positive change represents a hyperpolarization of the membrane potential caused by an opening of a KATP channel. The X axis represents increasing concentrations of Example 1. Example 1 is structurally related to N-cyano-N'-(1,1-dimethylpropyl)-N''-3-pyridinylguanidine and has an EC50 of approximately 30 nM in the A10 assay. […] In FIG. 3 the Y axis represents the change in membrane potential elicited by Example 2. A positive change represents a hyperpolarization of the membrane potential caused by an opening of a KATP channel. The X axis represents increasing concentrations of Example 2. Example 2 is structurally related to N-cyano-N'-(1,1-dimethylpropyl)-N''-3-pyridinylguanidine and has an EC50 of approximately 30 nM in the A10 assay.
In FIG. 4A and 4B the Y axis represents a change in membrane potential. In these experiments, a change in the negative direction represents a hyperpolarization of the membrane potential caused by an opening of a KATP channel. In FIG. 4A and 4B the X axis represents time in minutes. Additional experiments indicate that 0.3 and 1.0 μM Example 3 also have no effect on the membrane potential of A10 cells (data not shown). […] Thus, within the azidophenylcyanoguanidine chemical series there are compounds that can be used to identify the cellular components required to open and close KATP close channels.

The subject of assay [3] is KATP channel in A10 cells. Kind of assay: Photoinactivation of KATP channels in A10 cells (UV pretreatment, then opener challenge). The assay is classed as cell-based, rat. Conditions: for photoinactivation of the A10 KATP channel: compound and UV light; for responsiveness to N-cyano-N'-(1,1-dimethylpropyl)-N''-3-pyridinylguanidine challenge after pretreatment and UV light: UV 254 nm, 1 min, challenge 1 μM, FIG. 5.
Excerpt: as §2
Photoinactivation of KATP channels in A10 cells was carried out on cells grown on coverglass chambers. A10 cells were grown to confluence and washed 3 times with EBSS-H. The A10 cells were then equilibrated for 15 min at 37° C. with 100 nM to 30 μM of the azidophenyl-cyanoguanidines. The A10 cells were exposed to 600 μwatts/cm^2 of 254 nm light for 1 min to photoactivate these azidophenyl-cyanoguanidines. After photolysis, the A10 cells were extensively washed with EBSS-H and finally placed in EBSS-H containing 5 μM DiBAC4 (3). The pretreated cells were then challenged with 1 μM N-cyano-N'-(1,1-dimethylpropyl)-N.increment.-3-pyridinylguanidine and changes in membrane potential were measured as described in Section I, above, ASSAY OF KATP CHANNEL MODULATORS. If the KATP channels in A10 cells were covalently photoinactivated by the azidophenyl-cyanoguanidines, then the cells would be unresponsive to the subsequent challenge of KATP openers such as N-cyano-N'-(1,1-dimethylpropyl)-N''-3-pyridinylguanidine. […]

Assay [4] has as its system calcium-activated potassium channel. Nature of the assay: Responsiveness of photoinactivated A10 cells to agents that open the calcium-activated potassium channel. The assay is classed as cell-based, rat. The settings on record: maximum concentration and UV light.
Assay [5] concerns 47 kilodalton protein. Nature of the assay: Competition of photolabeling of the 47 kilodalton protein by nonradiolabeled compound. The assay is classed as binding, rat. How it is done:
as §1, with “dried. […]” for “dried.”

For assay [6], the system named is 56 kilodalton protein. Nature of the assay: Competition of photolabeling of the 56 kilodalton protein by nonradiolabeled compound. The assay is classed as binding, rat. The settings on record: nonradiolabeled Example 2, 1 nM to 30 uM. On the procedure: as §1, with “dried. […]” for “dried.”
The target of assay [7] is T1, KATP channel in A10 rat aortic smooth muscle cells. Kind of assay: Reversal/block of N-cyano-N'-(1,1-dimethylpropyl)-N''-3-pyridinylguanidine-dependent KATP channel opening in A10 cells (membrane potential). Type of assay: cell-based.
Excerpt: as §2
In FIG. 4A and 4B the Y axis represents a change in membrane potential. In these experiments, a change in the negative direction represents a hyperpolarization of the membrane potential caused by an opening of a KATP channel. In FIG. 4A and 4B the X axis represents time in minutes. […]

For assay [8], the system named is 37 kilodalton protein. Kind of assay: Competition of photolabeling of the 37 kilodalton protein by nonradiolabeled compound. The assay is classed as binding, rat. Conditions: nonradiolabeled Example 3, 1 nM to 30 uM. On the procedure: as §1
(§3) There was also a 27 kilodalton protein that was radiolabeled by Example 3a and UV light.

Assay [9] concerns 27 kilodalton protein. Nature of the assay: Competition of photolabeling of the 27 kilodalton protein by nonradiolabeled compound. The assay is classed as binding, rat. Conditions: nonradiolabeled Example 3, 1 nM to 30 uM. How it is done: as §1, §3

This is an account of results in patent US5525742A, “Azidophenylcyanoguanidines as photoaffinity probes” (The Upjohn Company, priority 1994, dated 1996).

Values joined by “and” are separate entries in the source; they are usually repeats but may differ in a detail not shown here. Equal entries are not always repeated.

One may read the EC50 as the concentration at which the effect is half-maximal. Read a low EC50 as greater potency.

T1 sequence (Q63563 1-1545 isoform Q63563-2): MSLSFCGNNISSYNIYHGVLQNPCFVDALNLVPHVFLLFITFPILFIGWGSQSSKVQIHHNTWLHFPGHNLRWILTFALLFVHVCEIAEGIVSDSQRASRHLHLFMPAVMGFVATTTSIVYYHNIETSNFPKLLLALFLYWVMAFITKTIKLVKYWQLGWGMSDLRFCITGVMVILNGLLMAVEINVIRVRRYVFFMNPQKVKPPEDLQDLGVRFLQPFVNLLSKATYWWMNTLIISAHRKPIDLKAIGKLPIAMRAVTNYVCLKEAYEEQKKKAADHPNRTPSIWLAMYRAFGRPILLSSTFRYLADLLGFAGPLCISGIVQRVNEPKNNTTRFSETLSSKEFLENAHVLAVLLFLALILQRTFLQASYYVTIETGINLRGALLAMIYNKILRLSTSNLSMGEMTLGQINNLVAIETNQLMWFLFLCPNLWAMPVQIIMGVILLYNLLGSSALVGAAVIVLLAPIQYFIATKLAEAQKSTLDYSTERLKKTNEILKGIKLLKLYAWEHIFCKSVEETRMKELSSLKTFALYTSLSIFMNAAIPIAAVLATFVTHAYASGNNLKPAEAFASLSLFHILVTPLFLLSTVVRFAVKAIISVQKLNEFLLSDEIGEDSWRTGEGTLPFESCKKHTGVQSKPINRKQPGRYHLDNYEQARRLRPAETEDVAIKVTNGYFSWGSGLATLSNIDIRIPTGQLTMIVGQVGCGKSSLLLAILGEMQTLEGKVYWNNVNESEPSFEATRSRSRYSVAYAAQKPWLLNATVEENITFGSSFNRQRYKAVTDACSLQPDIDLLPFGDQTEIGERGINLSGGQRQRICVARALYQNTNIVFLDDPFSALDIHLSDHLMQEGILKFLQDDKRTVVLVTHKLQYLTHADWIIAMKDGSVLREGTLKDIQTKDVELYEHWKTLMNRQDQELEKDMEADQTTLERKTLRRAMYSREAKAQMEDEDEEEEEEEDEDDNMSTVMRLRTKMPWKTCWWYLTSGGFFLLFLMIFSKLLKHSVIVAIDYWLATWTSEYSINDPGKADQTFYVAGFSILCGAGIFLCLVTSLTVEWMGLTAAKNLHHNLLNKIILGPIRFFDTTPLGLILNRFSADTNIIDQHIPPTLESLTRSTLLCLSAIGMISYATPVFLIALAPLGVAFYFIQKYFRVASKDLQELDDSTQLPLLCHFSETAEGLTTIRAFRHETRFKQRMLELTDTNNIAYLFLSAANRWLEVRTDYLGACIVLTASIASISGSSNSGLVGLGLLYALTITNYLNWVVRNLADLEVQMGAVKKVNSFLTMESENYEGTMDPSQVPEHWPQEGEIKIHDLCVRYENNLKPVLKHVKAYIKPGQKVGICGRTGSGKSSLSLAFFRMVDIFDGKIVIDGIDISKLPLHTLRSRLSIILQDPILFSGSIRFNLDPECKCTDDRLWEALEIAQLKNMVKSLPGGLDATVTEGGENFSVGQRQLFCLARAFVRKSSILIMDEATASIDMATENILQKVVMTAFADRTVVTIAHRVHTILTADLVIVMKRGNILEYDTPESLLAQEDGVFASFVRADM
T1 sequence (Q63664 whole entry partner): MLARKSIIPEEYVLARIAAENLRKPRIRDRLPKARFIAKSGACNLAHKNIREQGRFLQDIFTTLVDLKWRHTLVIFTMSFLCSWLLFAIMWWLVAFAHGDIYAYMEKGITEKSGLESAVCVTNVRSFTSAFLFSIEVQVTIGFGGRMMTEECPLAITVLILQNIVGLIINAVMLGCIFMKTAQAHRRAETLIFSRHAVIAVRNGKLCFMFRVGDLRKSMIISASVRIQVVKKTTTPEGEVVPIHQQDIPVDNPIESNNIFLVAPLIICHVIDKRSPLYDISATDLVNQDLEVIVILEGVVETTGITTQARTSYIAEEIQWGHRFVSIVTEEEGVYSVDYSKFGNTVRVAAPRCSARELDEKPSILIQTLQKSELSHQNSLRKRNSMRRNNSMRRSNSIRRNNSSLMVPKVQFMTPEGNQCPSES

Consider `CCC(C)(C)NC(=NC#N)Nc1cc([125I])cc(N=[N+]=[N-])c1` [Example 2a, N-(3-azido-5-iodo-^125 I-phenyl)-N'-cyano-N''-(1,1-dimethylpropyl) guanidine], for which the “molecular weight of radiolabeled protein” value in assay [1] was 47 kilodalton and 56 kilodalton.
On to `CCC(C)(C)N=C(NC#N)Nc1cc(I)cc(N=[N+]=[N-])c1` [Example 2, N-(3-azido-5-iodophenyl)-N'-cyano-N''-(1,1-dimethylpropyl)guanidine], for which, in assay [2] (data not shown), the “block of the hyperpolarizing effect by glyburide” value (“block … by glyburide” for short) is reported as “blocked”. In addition, in assay [2], the concentration giving a half-maximal response (EC50) is ~30 nM and the “potency relative to N-cyano-N'-(1,1-dimethylpropyl)-N''-3-pyridinylguanidine” value was “as potent as”. In assay [3], the “photoinactivation of the A10 KATP channel” value is on record as “specifically photoinactivated the A10 KATP channel”. In addition, the “responsiveness to agents that open the calcium-activated potassium channel after pretreatment” value in assay [4] is given as “remained responsive”. Further, the “inhibition of radiolabeling of the 47 kilodalton protein by Example 2a” value in assay [5] (nonradiolabeled Example 2, 1 nM to 30 uM) is “specifically inhibited”. For the same compound, the “inhibition of radiolabeling of the 56 kilodalton protein by Example 2a” value in assay [6] is “specifically inhibited”.
For the compound `CCC(C)(C)N=C(NC#N)Nc1cc(Cl)cc(N=[N+]=[N-])c1` [Example 1, N-(3-azido-5-chlorophenyl)-N'-cyano-N"-(1,1-dimethylpropyl)guanidine], in assay [2] (data not shown), the “block … by glyburide” value was “blocked”. Besides, in [2], the EC50 was ~30 nM and the “potency relative to N-cyano-N'-(1,1-dimethylpropyl)-N''-3-pyridinylguanidine” value was “as potent as”. For the same compound, in assay [3], the “responsiveness to N-cyano-N'-(1,1-dimethylpropyl)-N''-3-pyridinylguanidine challenge after pretreatment and UV light” value is recorded as “concentration dependent loss”; the “photoinactivation of the A10 KATP channel” value was “specifically photoinactivated the A10 KATP channel”. The “responsiveness to agents that open the calcium-activated potassium channel after pretreatment” value in assay [4] was “remained responsive”. Besides, in assay [5] (nonradiolabeled Example 1, 30 nM to 30 uM), the “inhibition of radiolabeling of the 47 kilodalton protein by Example 1a” value was “specifically inhibited”.
Regarding `CCC(C)(C)NC(=Nc1cccnc1)NC#N` [N-cyano-N'-(1,1-dimethylpropyl)-N''-3-pyridinylguanidine, reference compound], the “opening of the A10 KATP channel with hyperpolarization” value in [2] (1 μM, FIG. 4B) is recorded as “opens the A10 KATP channel”. The “block … by glyburide” value in assay [2] (data not shown) is “blocked”. In assay [2], the EC50 was 30 nM. Moreover, in [3], the “responsiveness to N-cyano-N'-(1,1-dimethylpropyl)-N''-3-pyridinylguanidine challenge after pretreatment and UV light” value is reported as “remain nearly completely responsive”.
Consider `N#CN=C(Nc1cc([125I])cc(N=[N+]=[N-])c1)NC1(c2cccc(F)c2)CCC1` [Example 3a, N-(3-azido-5-iodo-125I-phenyl)-N'-cyano-N''-[1-(3-fluorophenyl)cyclobutyl]guanidine], for which, in assay [1], the “apparent molecular weight of the most prominent radiolabeled protein” value turned out to be 37 kilodaltons, the “molecular weight of radiolabeled protein” value amounted to 27 kilodalton and the “number of radiolabeled proteins” value is on record as “several radiolabeled proteins”.
Turning to `N#CNC(=NC1(c2cccc(F)c2)CCC1)Nc1cc(I)cc(N=[N+]=[N-])c1` [Example 3, N-(3-azido-5-iodophenyl)-N'-cyano-N"-(1-(3-fluorophenyl)cyclobutyl)guanidine], the “effect on the membrane potential of A10 cells” value is “no effect” in assay [2] (0.3 μM, data not shown); “no effect” in assay [2] (1.0 μM, data not shown); “no effect” in [2] (10 μM, FIG. 4A). The “reversal of the effect of N-cyano-N'-(1,1-dimethylpropyl)-N''-3-pyridinylguanidine” value in [7] (10 μM, in continuing presence of 1 μM opener, FIG. 4B) is “reverses the effect”. Further, the “block of opener-dependent opening of KATP channels” value in assay [7] (additional experiments, concentration dependence) was “in a concentration dependent manner”. Further, in assay [7] (conclusion from the data), the “mode of action on the KATP channel in A10 cells” value was “blocker of the KATP channel”. Also, in [8], the “inhibition of radiolabeling of the 37 kilodalton protein by Example 3a” value is “specifically inhibited”. In addition, the “inhibition of radiolabeling of the 27 kilodalton protein by Example 3a” value in assay [9] was “specifically inhibited”.
Turning to `[3H]C([3H])([3H])C([3H])([3H])C(C)(C)NC(=NC#N)Nc1cc(Cl)cc(N=[N+]=[N-])c1` [Example 1a, N-(3-azido-5-chlorophenyl)-N'-cyano-N''-(1,1-dimethyl-2,2,3,3,3-T5-propyl)guanidine], in assay [1], the “apparent molecular weight of the most prominent radiolabeled protein” value was found to be 47 kilodaltons and the “number of radiolabeled proteins” value is “several radiolabeled proteins”. For the same compound, the “labeling in the absence of UV light” value in assay [1] (no UV light, control experiments) is reported as “no proteins were labeled”.
